Measured values as given in US20240246941A1, “SUBSTITUTED 4-(3-AMINOPROP-1-YL)AMINOQUINOLINE ANALOGS AS MODULATORS OF MELANOMA-ASSOCIATED ANTIGEN 11 UBIQUITIN LIGASE” (ST. JUDE CHILDREN'S RESEARCH HOSPITAL, INC., priority 2020, published 2024).

biological target: MAGE-A11:PCF11 (Homo sapiens (Human), UniProt P43364); experiment: TR-FRET single point screening at 15 μM; type: binding; design: unit not given here; details: single point TR-FRET screening at 15 μM against MAGE-A11:PCF11
Source text: TR-FRET Assays and High-throughput Screen. Terbium-anti-GST antibody, 1 M Tris pH 7.5 1 M MgCl2 and 1 M DTT were purchased from Invitrogen (Carlsbad, CA), BSA was purchased from Sigma (St. Louis, MO). Dimethyl sulfoxide (DMSO) was purchased from Fisher Scientific (Pittsburgh, PA). Black 384-well low volume plates and 384-well polypropylene compound plates were purchased from Corning Incorporated (Tewksbury, MA). The St. Jude FDA drug and Bioactive library (11,293 chemicals), Drug-like library (10,073 chemicals) and Lead-like library (10,041 chemicals) were custom assembled and purchased from commercial sources including Sigma, Microsource (Gaylordsville, CT), selleckchem (Houston, TX), ChemDiv (San Diego, CA), ChemBridge (San Diego, CA), Enamine (Monmouth Jct., NJ), and Life Chemicals (Niagara-on-the-Lake, ON, Canada). They were arrayed (10 mM in DMSO) in 384-well polypropylene compound plates with columns 1, 2, 13 and 14 empty which were reserved for controls.
The TR-FRET assay buffer with a formula of 50 mM Tris pH 7.5, 20 mM MgCl2, 0.1 mg/ml BSA and 1 mM DTT was freshly prepared before each experiment. All TR-FRET assays were performed in black 384-well plates with 20 μl/well assay volume in the TR-FRET assay buffer at room temperature (approximately 25° C.). All peptides or compounds were solubilized in DMSO. To test the competitive activity of peptides or compounds against the interaction between GST-MAGEA11 MHD and FAM-PCF11_4 peptide, 10 μl/well peptide or compound at specified concentration was dispensed into a black 384-well low volume plate, followed by 5 μl/well FAM-PCF11_4 (800 nM), 5 μl/well Tb-anti-GST (20 nM) and GST-MAGEA11 MHD (20 nM). The assay components in each well was then mixed by shaking the plate on an IKA MTS 2/4 digital microtiter plate shaker (IKA Works; Wilmington, NC, USA) at 900 RPM for 1 minute. The plate was further centrifuged in an Eppendorf 5810 centrifuge with an A-4-62 swing-bucket rotor (Eppendorf AG, Hamburg, Germany) at 201 g (1000 rpm) for 30 seconds. The plate was then incubated for 90 min with a lid to avoid light exposure to the assay components. After incubation, the fluorescent emission signals at 520 nm and 490 nm channels of individual wells were measured with a PHERAstar FS plate reader (BMG Labtech; Durham, NC, USA) by using a 340 nm excitation filter, 100 μs delay time, and 200 μs integration time. The TR-FRET fluorescence emission ratio (TR-FRET signal) for each well was presented as 10 000×520 nm/490 nm, which was used directly for curve fitting, or further converted to % Inhibition based on the respective positive and negative controls. The graphic software GraphPad Prism 4.81 (GraphPad Software; La Jolla, CA, USA) was used to generate curves and derive IC50 values of tested peptides or compounds, if applicable.
TR-FRET screen for identifying MAGEA11 small molecule inhibitors was performed as follows. The primary one-concentration screening and subsequent 10 or 20-concentration dose response tests were accomplished with an automated High Throughput Screening system (HighRes Biosolutions, Beverly, MA)^30. In the primary screening, 15 μl/well FAM-PCF11_4 (267 nM) was first dispensed with a Multidrop Combi Reagent Dispenser (Thermo Fisher Scientific, Waltham, MA) to black 384-well low volume assay plates. The plates were spun down with a Velocity11 VSpin microplate centrifuge (Agilent Technologies, Santa Clara, CA). 30 nl/well of 10 mM compound/DMSO solutions, or DMSO alone, were transferred from compound plates (the St. Jude FDA drug and bioactive library, Drug-like library and Lead-like library) or a control plate to the assay plates with a Pin Tool (V&P Scientific, San Diego, CA). The compounds were arrayed in columns 3 to 12 and columns 15 to 24 of compound plates. The controls were arrayed in columns 1, 2, 13 and 14 of a compound plate. […]

Sequence of MAGE-A11:PCF11 (P43364 218-429): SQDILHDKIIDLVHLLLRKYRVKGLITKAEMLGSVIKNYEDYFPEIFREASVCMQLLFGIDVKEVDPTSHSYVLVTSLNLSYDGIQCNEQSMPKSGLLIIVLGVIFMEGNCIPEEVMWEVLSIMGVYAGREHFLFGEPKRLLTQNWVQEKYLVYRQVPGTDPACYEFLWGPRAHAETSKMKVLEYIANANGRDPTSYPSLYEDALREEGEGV

Compound | TR-FRET signal
CN(C)CCNc1c2c(nc3ccccc13)CCC2 [SJ000013622] | 3.285
O=C(O)CCCNC(=O)CNc1c2ccccc2nc2ccccc12 [SJ000016432] | 9.598
CC(Nc1c2ccccc2nc2ccccc12)C(=O)NC(CC(N)=O)C(=O)O (centres unmarked) [SJ000016433] | 22.71
CCOC(=O)c1cnc2c(ccc3ccccc32)c1NCCN(C)C [SJ000019487] | 6.418
CCN(CC)CC(=O)Nc1c2c(nc3ccccc13)CCCC2 [SJ000019523] | 2.741
CCOC(=O)c1cnc2c(C)cc(Cl)cc2c1NCCN(C)C [SJ000027210] | 3.834
CCOC(=O)c1cnc2c(Cl)c(Cl)ccc2c1NCCN(C)C [SJ000027266] | 2.575
CCOC(=O)c1cnc2ccc(C)cc2c1NCCN1CCOCC1 [SJ000027268] | −0.3915
CCOC(=O)c1cnc2ccc(OCC)cc2c1NCCN(C)C [SJ000027288] | 10.66
CCOC(=O)c1cnc2ccc(OCC)cc2c1NCCN1CCOCC1 [SJ000027289] | 5.291
CCOC(=O)c1cnc2ccc(Br)cc2c1NCCN1CCOCC1 [SJ000031339] | −47.24
CCOC(=O)c1ccc2ncc(C(=O)OCC)c(NCCN3CCOCC3)c2c1 [SJ000031347] | 0.6542
CCOC(=O)c1cnc2c(C)c(Cl)ccc2c1NCCN(C)C [SJ000037393] | −1.333
CCOC(=O)c1cnc2c(C)cc(C)cc2c1NCCN(C)C [SJ000037396] | 4.92
CCc1nc2ccccc2c(NC(=O)CNC(C)(C)CC(C)(C)C)c1C [SJ000049110] | −0.6045
CCN(CC)CC(=O)Nc1c2c(nc3ccccc13)CCC2 [SJ000049655] | 0.6542
Cc1ccc2ncc(S(=O)(=O)c3ccccc3)c(N3CCN(C)CC3)c2c1 [SJ000083945] | −8.419
CCc1ccc2ncc(S(=O)(=O)c3ccccc3)c(N3CCN(C)CC3)c2c1 [SJ000083946] | −6.249
COc1ccc2ncc(S(=O)(=O)c3ccccc3)c(N3CCN(C)CC3)c2c1 [SJ000083947] | −2.094
CCOc1ccc2ncc(S(=O)(=O)c3ccccc3)c(N3CCN(C)CC3)c2c1 [SJ000083948] | −3.938
CN1CCN(c2c(S(=O)(=O)c3ccccc3)cnc3ccc(F)cc23)CC1 [SJ000083949] | −11.5
CN1CCN(c2c(S(=O)(=O)c3ccccc3)cnc3ccc(Cl)cc23)CC1 [SJ000083950] | −5.374
COc1cc2ncc(S(=O)(=O)c3ccc(C)cc3)c(N3CCN(C)CC3)c2cc1OC [SJ000083951] | 1.313
COc1ccc2ncc(S(=O)(=O)c3ccc(Cl)cc3)c(N3CCN(C)CC3)c2c1 [SJ000083952] | −3.658
COc1cc2ncc(S(=O)(=O)c3ccc(Cl)cc3)c(N3CCN(C)CC3)c2cc1OC [SJ000083953] | 4.674
CCc1ccc2ncc(S(=O)(=O)c3ccc(OC)cc3)c(N3CCN(C)CC3)c2c1 [SJ000083954] | −5.969
COc1ccc(S(=O)(=O)c2cnc3cc(OC)c(OC)cc3c2N2CCN(C)CC2)cc1 [SJ000083955] | 0.8227

Compound | TR-FRET signal
CCN1CCN(c2c(S(=O)(=O)c3ccccc3)cnc3ccc(C)cc23)CC1 [SJ000083956] | −3.448
CCc1ccc2ncc(S(=O)(=O)c3ccccc3)c(N3CCN(CC)CC3)c2c1 [SJ000083957] | 3.238
CCN1CCN(c2c(S(=O)(=O)c3ccccc3)cnc3ccc(OC)cc23)CC1 [SJ000083958] | 0.1242
CCOc1ccc2ncc(S(=O)(=O)c3ccccc3)c(N3CCN(CC)CC3)c2c1 [SJ000083959] | 4.534
CCN1CCN(c2c(S(=O)(=O)c3ccccc3)cnc3ccc(Cl)cc23)CC1 [SJ000083960] | 4.43
CCN1CCN(c2c(S(=O)(=O)c3ccc(C)cc3)cnc3ccc(C)cc23)CC1 [SJ000083961] | 0.2213
CCc1ccc2ncc(S(=O)(=O)c3ccc(C)cc3)c(N3CCN(CC)CC3)c2c1 [SJ000083962] | 2.377
CCN1CCN(c2c(S(=O)(=O)c3ccc(C)cc3)cnc3ccc(OC)cc23)CC1 [SJ000083963] | −3.917
CCOc1ccc2ncc(S(=O)(=O)c3ccc(C)cc3)c(N3CCN(CC)CC3)c2c1 [SJ000083964] | −5.899
CCN1CCN(c2c(S(=O)(=O)c3ccc(C)cc3)cnc3cc(OC)c(OC)cc23)CC1 [SJ000083965] | 7.146
CCN1CCN(c2c(S(=O)(=O)c3ccc(C)cc3)cnc3ccc(Cl)cc23)CC1 [SJ000083966] | −4.358
CCN1CCN(c2c(S(=O)(=O)c3ccc(Cl)cc3)cnc3ccc(C)cc23)CC1 [SJ000083967] | −3.098
CCc1ccc2ncc(S(=O)(=O)c3ccc(Cl)cc3)c(N3CCN(CC)CC3)c2c1 [SJ000083968] | −19.13
CCOc1ccc2ncc(S(=O)(=O)c3ccc(Cl)cc3)c(N3CCN(CC)CC3)c2c1 [SJ000083969] | −4.989
CCN1CCN(c2c(S(=O)(=O)c3ccc(Cl)cc3)cnc3cc(OC)c(OC)cc23)CC1 [SJ000083970] | −6.809
CCOc1ccc2ncc(S(=O)(=O)c3ccc(OC)cc3)c(N3CCN(CC)CC3)c2c1 [SJ000083971] | −6.389
CCN1CCN(c2c(S(=O)(=O)c3ccc(OC)cc3)cnc3cc(OC)c(OC)cc23)CC1 [SJ000083972] | 7.411
Cc1ccc2ncc(S(=O)(=O)c3ccccc3)c(N3CCN(c4ccccc4)CC3)c2c1 [SJ000083973] | −29.7
COc1ccc2ncc(S(=O)(=O)c3ccccc3)c(N3CCN(c4ccccc4)CC3)c2c1 [SJ000083974] | −133
CCOc1ccc2ncc(S(=O)(=O)c3ccccc3)c(N3CCN(c4ccccc4)CC3)c2c1 [SJ000083975] | −12.06
O=S(=O)(c1ccccc1)c1cnc2ccc(F)cc2c1N1CCN(c2ccccc2)CC1 [SJ000083976] | −31.1
O=S(=O)(c1ccccc1)c1cnc2ccc(Cl)cc2c1N1CCN(c2ccccc2)CC1 [SJ000083977] | −15.7
COc1ccc2ncc(S(=O)(=O)c3ccccc3)c(N3CCN(c4ccc(F)cc4)CC3)c2c1 [SJ000083978] | −133.1
CCOc1ccc2ncc(S(=O)(=O)c3ccccc3)c(N3CCN(c4ccc(F)cc4)CC3)c2c1 [SJ000083979] | −181.3
O=S(=O)(c1ccccc1)c1cnc2ccc(F)cc2c1N1CCN(c2ccc(F)cc2)CC1 [SJ000083980] | −11.08
COc1ccc(N2CCN(c3c(S(=O)(=O)c4ccccc4)cnc4ccc(C)cc34)CC2)cc1 [SJ000083981] | −37.97
COc1ccc(N2CCN(c3c(S(=O)(=O)c4ccccc4)cnc4ccc(F)cc34)CC2)cc1 [SJ000083982] | −32.85

same assay, conditions: single point TR-FRET screening of quinoline compounds against MAGE-A11:PCF11; 15 μM

Compound | TR-FRET signal
Clc1ccc2c(NCCCNCc3ccco3)ccnc2c1 [SJ000000502] | 6.349
CN(C)CCCNc1c2c(nc3ccccc13)CCC2 [SJ000029259] | 24.05
CCOC(=O)c1cnc2c(C)cc(C)cc2c1NCCCN(C)C [SJ000037397] | 14.93
CN(C)CCCNc1c2ccccc2nc2ccccc12 [SJ000044378] | 16.77
NC(=O)CC(Nc1c2ccccc2nc2ccccc12)C(=O)O (centres unmarked) [SJ000044383] | 20.1
